{"source": "patent US20140301980A1", "about": "“METHODS FOR THE TREATMENT OF PSORIATIC ARTHRITIS USING APREMILAST” (CELGENE CORPORATION, priority 2013, published 2014)", "key": {"[1]": {"test_system": "patients with psoriatic arthritis (PsA)", "assay": "Phase II randomized, double-blind, placebo controlled, multicenter clinical study in psoriatic arthritis", "settings": "for Subjects reporting a serious AE (SAE): 12 week study period", "protocol": "A phase II, randomized, double-blind, placebo controlled, multicenter clinical study was performed in North America and Europe in patients with psoriatic arthritis (PsA). […] Mean duration of PsA was 7.8 years; mean tender joint count of 22, mean swollen joint count of 10 at baseline (Moll & Wright criteria). […] Stable doses of NSAIDs, corticosteroids (≦10 mg/day prednisone or equivalent), and methotrexate were allowed."}, "[2]": {"test_system": "adult patients with active PsA", "assay": "Phase III clinical study PALACE 1 in active psoriatic arthritis", "type": "in vivo, human", "settings": "for Patients achieving remission, DAS28(CRP) less than 2.6: N=168; for Physician's global assessment of disease activity, % Change (percent improvement) / Subject's assessment of pain, % Change (percent improvement) / Subject's global assessment of disease activity, % Change (percent improvement): VAS; for Number of swollen joints, % Change (percent improvement): scale 0-76; for Number of tender joints, % Change (percent improvement): scale 0-78; for Proportion of patients with ACR 20 response / Proportion of patients with ACR 50 response / Proportion of patients with ACR 70 response: N = 168", "procedure": "(§1) The safety and efficacy of apremilast was evaluated in three multi-center, randomized, double-blind, placebo-controlled trials (Studies PALACE 1, PALACE 2, and PALACE 3) of similar design. A total of 1493 adult patients with active PsA (≧3 swollen joints and ≧3 tender joints) despite prior or current treatment with disease-modifying antirheumatic drug (DMARD) therapy were randomized. […] One qualifying psoriatic skin lesion of at least 2 cm in diameter was required in PALACE 3. Previous treatment with a biologic, including TNF-blockers was allowed.\n(§2) Across the 3 studies, patients were randomly assigned to placebo (n=496), apremilast 20 mg (n=500), or apremilast 30 mg (n=497) given orally twice daily. Patients were allowed to receive stable doses of concomitant methotrexate (MTX) (≦25 mg/week), sulfasalazine (SSZ) (≦2 g/day), leflunomide (LEF) (≦20 mg/day), low dose oral corticosteroids (equivalent to ≦10 mg of prednisone a day), and/or nonsteroidal anti-inflammatory drugs (NSAIDs) during the trial. Treatment assignments were stratified based on small-molecule DMARD use at baseline. The patients who were therapeutic failures of >3 agents for PsA (small molecules or biologics), or >1 biologic TNF blocker were excluded.\n(§3) The primary endpoint was the percentage of patients achieving American College of Rheumatology (ACR) 20 response at Week 16. Placebo-controlled efficacy data were collected and analyzed through Week 24. Patients with each subtype of PsA were enrolled across the 3 studies, including symmetric polyarthritis (62.0%), asymmetric oligoarthritis (26.9%), distal interphalangeal (DIP) joint arthritis (6.2%), arthritis mutilans (2.7%), and predominant spondylitis (2.1%). The median duration of PsA disease was 5 years. Patients received concomitant therapy with at least one DMARD (65.2%), MTX (54.5%), SSZ (9.0%), LEF (7.4%), low dose oral corticosteroids (13.9%), and NSAIDs (70.7%). Prior treatment with small-molecule DMARDs only was reported in 76.4% of patients and prior treatment with biologic DMARDs was reported in 22.4% of patients."}, "[3]": {"test_system": "adult patients with active PsA", "assay": "Phase III clinical study PALACE 3 in active psoriatic arthritis (PASI-75)", "type": "in vivo, human", "settings": "patients with psoriatic involvement of at least three percent BSA", "procedure": "as §1\nas §2, with “Treatment assignments were stratified based on small-molecule DMARD use at baseline. The patients who were therapeutic failures of >3 agents for PsA (small molecules or biologics), or >1 biologic TNF blocker were excluded.” left out\nThe primary endpoint was the percentage of patients achieving American College of Rheumatology (ACR) 20 response at Week 16. Placebo-controlled efficacy data were collected and analyzed through Week 24. […]\nPatients with psoriatic involvement of at least three percent body surface area (BSA) were evaluated for Psoriatic Area and Severity Index (PASI)-75 responses. […]"}, "[4]": {"test_system": "adult patients with active PsA", "assay": "Phase III clinical studies PALACE 1-3, study not specified", "type": "in vivo, human", "procedure": "as §1, §2, §3"}}}
{"molecule": "CCOc1cc([C@@H](CS(C)(=O)=O)N2C(=O)c3cccc(NC(C)=O)c3C2=O)ccc1OC", "note": "[apremilast, (+)-2-[1-(3-ethoxy-4-methoxyphenyl)-2-methylsulfonylethyl]-4-acetylaminoisoindoline-1,3-dione]", "values": [{"measurement": "Discontinuations due to AEs", "setting": "[1]; 20 mg BID", "value": 9, "unit": "%"}, {"measurement": "Discontinuations due to lack of efficacy", "setting": "[1]; 20 mg BID", "value": 7, "unit": "%"}, {"measurement": "Subjects reporting a serious AE (SAE)", "setting": "[1]; 20 mg BID", "value": 4, "unit": "subjects"}, {"measurement": "Primary endpoint, ACR20 at 12 weeks", "setting": "[1]; 20 mg BID", "value": "met"}, {"measurement": "ACR20 at 24 weeks", "setting": "[1]; 20 mg BID, evaluable subjects, 24 weeks", "value": 40, "unit": "%"}, {"measurement": "Discontinuations due to AEs", "setting": "[1]; 40 mg QD", "value": 6, "unit": "%"}, {"measurement": "Discontinuations due to lack of efficacy", "setting": "[1]; 40 mg QD", "value": 0, "unit": "%"}, {"measurement": "Subjects reporting a serious AE (SAE)", "setting": "[1]; 40 mg QD", "value": 0, "unit": "subjects"}, {"measurement": "Primary endpoint, ACR20 at 12 weeks", "setting": "[1]; 40 mg QD", "value": "met"}, {"measurement": "ACR20 at 24 weeks", "setting": "[1]; 40 mg QD, evaluable subjects, 24 weeks", "value": 39.1, "unit": "%"}, {"measurement": "Subjects reporting an SAE in the extension", "setting": "[1]; active-drug extension, weeks 12-24", "value": 7, "unit": "subjects"}, {"measurement": "ACR20 at 24 weeks", "setting": "[1]; placebo subjects switched to 20 mg BID in the extension", "value": 35, "unit": "%"}, {"measurement": "ACR20 at 24 weeks", "setting": "[1]; placebo subjects switched to 40 mg QD in the extension", "value": 40, "unit": "%"}, {"measurement": "Deaths", "setting": "[1]; whole study", "value": "no deaths"}, {"measurement": "Proportion of HAQ-DI responders (≧0.3 change from baseline) compared to placebo", "setting": "[2]; Week 16", "value": "greater proportion"}, {"measurement": "Patients achieving remission, DAS28(CRP) less than 2.6", "setting": "[2]; Week 16, 30 mg BID with or without DMARDs", "value": 13.1, "unit": "%"}, {"measurement": "CRP, % Change (percent improvement)", "setting": "[2]; Week 16, 30 mg BID ± DMARDs", "value": 12.40, "unit": "%"}, {"measurement": "HAQ-DI score, % Change (percent improvement)", "setting": "[2]; Week 16, 30 mg BID ± DMARDs", "value": 20.00, "unit": "%"}, {"measurement": "Physician's global assessment of disease activity, % Change (percent improvement)", "setting": "[2]; Week 16, 30 mg BID ± DMARDs", "value": 42.31, "unit": "%"}, {"measurement": "Subject's assessment of pain, % Change (percent improvement)", "setting": "[2]; Week 16, 30 mg BID ± DMARDs", "value": 26.00, "unit": "%"}, {"measurement": "Subject's global assessment of disease activity, % Change (percent improvement)", "setting": "[2]; Week 16, 30 mg BID ± DMARDs", "value": 20.29, "unit": "%"}, {"measurement": "Number of swollen joints, % Change (percent improvement)", "setting": "[2]; Week 16, 30 mg BID ± DMARDs", "value": 50.00, "unit": "%"}, {"measurement": "Number of tender joints, % Change (percent improvement)", "setting": "[2]; Week 16, 30 mg BID ± DMARDs", "value": 43.17, "unit": "%"}, {"measurement": "ACR 20 response rate", "setting": "[2]; Week 16, apremilast alone (29/62 patients)", "value": 46.8, "unit": "%"}, {"measurement": "ACR 20 response rate", "setting": "[2]; Week 16, biologic-naive patients, concomitant with DMARD (51/124 patients)", "value": 41.1, "unit": "%"}, {"measurement": "ACR 20 response rate", "setting": "[2]; Week 16, concomitant with DMARD (35/106 patients)", "value": 33.0, "unit": "%"}, {"measurement": "ACR 20 response rate", "setting": "[2]; Week 16, previously treated with small molecule and/or biologic DMARD (11/41 patients)", "value": 26.8, "unit": "%"}, {"measurement": "Proportion of patients with ACR 20 response", "setting": "[2]; Week 16, ± DMARDs", "value": 38.1, "unit": "%"}, {"measurement": "Proportion of patients with ACR 50 response", "setting": "[2]; Week 16, ± DMARDs", "value": 16.1, "unit": "%"}, {"measurement": "Proportion of patients with ACR 70 response", "setting": "[2]; Week 16, ± DMARDs", "value": 4.2, "unit": "%"}, {"measurement": "ACR 20 response rate", "setting": "[2]; Week 24, 30 mg BID for up to 24 weeks, independent of response at Week 16", "value": 43.5, "unit": "%"}, {"measurement": "Patients achieving remission, DAS28(CRP) less than 2.6", "setting": "[2]; Week 24, 30 mg BID with or without DMARDs", "value": 19.0, "unit": "%"}, {"measurement": "CRP, % Change (percent improvement)", "setting": "[2]; Week 24, 30 mg BID ± DMARDs", "value": 8.45, "unit": "%"}, {"measurement": "HAQ-DI score, % Change (percent improvement)", "setting": "[2]; Week 24, 30 mg BID ± DMARDs", "value": 20.00, "unit": "%"}, {"measurement": "Physician's global assessment of disease activity, % Change (percent improvement)", "setting": "[2]; Week 24, 30 mg BID ± DMARDs", "value": 35.90, "unit": "%"}, {"measurement": "Subject's assessment of pain, % Change (percent improvement)", "setting": "[2]; Week 24, 30 mg BID ± DMARDs", "value": 27.67, "unit": "%"}, {"measurement": "Subject's global assessment of disease activity, % Change (percent improvement)", "setting": "[2]; Week 24, 30 mg BID ± DMARDs", "value": 23.92, "unit": "%"}, {"measurement": "Number of swollen joints, % Change (percent improvement)", "setting": "[2]; Week 24, 30 mg BID ± DMARDs", "value": 50.00, "unit": "%"}, {"measurement": "Number of tender joints, % Change (percent improvement)", "setting": "[2]; Week 24, 30 mg BID ± DMARDs", "value": 44.83, "unit": "%"}, {"measurement": "Proportion of patients with ACR 20 response", "setting": "[2]; Week 24, ± DMARDs", "value": 35.1, "unit": "%"}, {"measurement": "Proportion of patients with ACR 50 response", "setting": "[2]; Week 24, ± DMARDs", "value": 19.0, "unit": "%"}, {"measurement": "Proportion of patients with ACR 70 response", "setting": "[2]; Week 24, ± DMARDs", "value": 10.1, "unit": "%"}, {"measurement": "Change in mean HAQ-DI score from baseline", "setting": "[2]; baseline to Week 16, p=0.0017 vs placebo", "value": "−0.244"}, {"measurement": "Proportion of patients achieving PASI-75", "setting": "[3]; Week 16, 30 BID", "value": 22.2, "unit": "%"}, {"measurement": "Proportion of patients achieving PASI-75", "setting": "[3]; Week 24, 30 BID", "value": 25.6, "unit": "%"}, {"measurement": "Mental Component Summary score (MCS), mean change from baseline", "setting": "[4]; human, in vivo", "value": "No worsening"}, {"measurement": "SF-36v2 physical functioning domain and physical component summary score, change from baseline compared to placebo", "setting": "[4]; human, in vivo", "value": "greater improvement"}, {"measurement": "Dactylitis and enthesitis", "setting": "[4]; patients with pre-existing dactylitis or enthesitis", "value": "improvement"}]}
